{
  "source": "paper PMC11998001",
  "about": "“Towards P2X4 Positron Emission Tomography Tracing” (Journal of Medicinal Chemistry, 2025)",
  "origin": "cited, not measured here",
  "key": {"[1]": {"set-up": "method as in PMID 33125712"}, "tactile allodynia": {"test_system": "tactile allodynia", "set-up": "method as in PMID 33125712"}, "[2]": {"test_system": "NLRP3 Inflammasome in macrophages", "set-up": "method as in PMID 39805099"}, "[3]": {"conditions": "pH 7.4"}, "[4]": {"conditions": "for MLM stability: mouse, microsomes, 1.5 h"}, "[5]": {"conditions": "for blood-brain barrier (BBB) permeation of radioligand (in words): in vivo, 18F-radiolabeled form"}},
  "data": [
    {"smiles": "O=C1CN=C(c2cccc(Br)c2)c2oc3ccccc3c2N1", "note": "[5-BDBD]", "values": [
      {"measurement": "water solubility (in words)", "result": "low water solubility"}
    ]},
    {"smiles": "NS(=O)(=O)c1cc(NC(=O)Cc2ccccc2)ccc1Oc1cccc(Cl)c1", "note": "[BAY-1797]", "values": [
      {"measurement": "water solubility (in words)", "result": "high water solubility"},
      {"measurement": "blood-brain barrier permeation (in words)", "setting": "[1]", "result": "does not permeate the blood–brain barrier"}
    ]},
    {"smiles": "CC(C)c1cc(Br)c(NC(=O)Nc2cccnc2)c(Br)c1", "note": "[BX-430]", "values": [
      {"measurement": "antagonist potency at the hP2X4 receptor (in words)", "setting": "hP2X4R; allosteric antagonist", "result": "submicromolar"}
    ]},
    {"smiles": "CNCC[C@H](Oc1cccc2ccccc12)c1cccs1", "note": "[Duloxetine]", "values": [
      {"measurement": "effect on tactile allodynia (in words)", "setting": "tactile allodynia", "result": "reverse tactile allodynia"}
    ]},
    {"smiles": "Cc1cc(F)ccc1S(=O)(=O)Nc1ccc(N2C(=O)CC(=O)Nc3c2ccc2ccccc32)cc1", "note": "[Erlitz 44]", "values": [
      {"measurement": "NLRP3 inflammasome activation / interleukin-1β release (in words)", "setting": "[2]", "result": "able to block NLRP3 inflammasome activation"},
      {"measurement": "logD7.4", "setting": "[3]", "result": 3.59},
      {"measurement": "stability in mouse microsomes (in words)", "setting": "[4]", "result": "higher stability in mouse microsomes"},
      {"measurement": "MLM stability", "setting": "[4]", "result": 93, "unit": "%"}
    ]},
    {"smiles": "Cc1cc(F)ccc1CS(=O)(=O)Nc1ccc(N2C(=O)CC(=O)Nc3c2ccc2ccccc32)cc1", "note": "[Erlitz 64]", "values": [
      {"measurement": "NLRP3 inflammasome activation / interleukin-1β release (in words)", "setting": "[2]", "result": "able to block NLRP3 inflammasome activation"},
      {"measurement": "logD7.4", "setting": "[3]", "result": 3.68},
      {"measurement": "MLM stability", "setting": "[4]", "result": 64, "unit": "%"}
    ]},
    {"smiles": "Cc1cc([18F])ccc1S(=O)(=O)Nc1ccc(N2C(=O)CC(=O)Nc3c2ccc2ccccc32)cc1", "note": "[Erlitz [^18F]44]", "values": [
      {"measurement": "in vivo metabolism of radioligand (in words)", "setting": "[5]", "result": "rapid, in vivo metabolism"},
      {"measurement": "blood-brain barrier (BBB) permeation of radioligand (in words)", "setting": "[5]", "result": "almost no blood–brain barrier (BBB) permeation"}
    ]},
    {"smiles": "Cc1cc([18F])ccc1CS(=O)(=O)Nc1ccc(N2C(=O)CC(=O)Nc3c2ccc2ccccc32)cc1", "note": "[Erlitz [^18F]64]", "values": [
      {"measurement": "in vivo metabolism of radioligand (in words)", "setting": "[5]", "result": "rapid, in vivo metabolism"},
      {"measurement": "blood-brain barrier (BBB) permeation of radioligand (in words)", "setting": "[5]", "result": "almost no blood–brain barrier (BBB) permeation"}
    ]},
    {"smiles": "O=C1CC(=O)N(c2cccc(-c3noc(=S)[nH]3)c2)c2ccc3ccccc3c2N1", "note": "[NP-1815-PX]", "values": [
      {"measurement": "water solubility (in words)", "result": "high potency and water solubility"}
    ]},
    {"smiles": "O=C(OCc1ccccc1)N1c2ccccc2Oc2ccccc21", "note": "[PSB-12054]", "values": [
      {"measurement": "IC50", "setting": "hP2X4R; representative P2X4 antagonists, Figure 2", "result": 190, "unit": "nM"}
    ]},
    {"smiles": "Cc1ccc(S(=O)(=O)N2c3ccccc3Oc3ccccc32)cc1", "note": "[PSB-12062]", "values": [
      {"measurement": "water solubility (in words)", "result": "more water-soluble than the first"}
    ]},
    {"smiles": "Fc1ccc([C@@H]2CCNC[C@H]2COc2ccc3c(c2)OCO3)cc1", "note": "[Paroxetine]", "values": [
      {"measurement": "effect on tactile allodynia (in words)", "setting": "tactile allodynia", "result": "reverse tactile allodynia"}
    ]}
  ]
}
